Reference: ChEMBL document CHEMBL4340560, “Design and synthesis of novel 1-phenyl-3-(5-(pyrimidin-4-ylthio)-1,3,4-thiadiazol- 2-yl)urea derivatives with potent anti-CML activity throughout PI3K/AKT signaling pathway” (Bioorg Med Chem Lett, 2019)
Values belong to the compound of their own block, whether it stands above or below them. Activity calls are given as the source filed them. The calls are words filed in the database; no cut-off is given here.

Assays:
[1] = system: K562; assay: Antiproliferative activity against human K562 cells assessed as inhibition of cell viability incubated for 72 hrs by real time live-cell imaging technique; format: functional, cell-based; conditions: K562, 72 h
[2] = target: Cellular tumor antigen p53 (Homo sapiens) (UniProt P04637); assay: Induction of p53 phosphorylation at S392, S46, S15 residues in human K562 cells up to 10 uM incubated for 48 hrs by human phospho-kinase array; format: cell-based
[3] = system: K562; assay: Inhibition of MAPK signalling in human K562 cells assessed as effect on JNK phosphorylation up to 10 uM incubated for 48 hrs by human phospho-kinase array; format: cell-based
[4] = system: K562; assay: Inhibition of STAT signalling in human K562 cells up to 10 uM incubated for 48 hrs by human phospho-kinase array; format: cell-based
[5] = system: K562; assay: Inhibition of PI3K/Akt signaling in human K562 cells assessed as reduction in p70S6K phosphorylation at T421/S424 residues up to 10 uM incubated for 48 hrs by human phospho-kinase array; format: cell-based
[6] = system: K562; assay: Inhibition of PI3K/Akt signaling in human K562 cells assessed as reduction in mTOR phosphorylation at S2448 residues up to 10 uM incubated for 48 hrs by human phospho-kinase array; format: cell-based
[7] = system: K562; assay: Inhibition of PI3K/Akt signaling in human K562 cells assessed as reduction in GSK3alpha/beta phosphorylation at S21/S9 residues up to 10 uM incubated for 48 hrs by human phospho-kinase array; format: cell-based
[8] = system: K562; assay: Inhibition of RAF/MEK/ERK signalling n human K562 cells assessed as reduction in ERK1/2 phosphorylation at T202/Y204, T185/Y187 residues up to 10 uM incubated for 48 hrs by human phospho-kinase array; format: cell-based
[9] = system: K562; assay: Inhibition of MAPK signalling in human K562 cells assessed as effect on HSP27 phosphorylation up to 10 uM incubated for 48 hrs by human phospho-kinase array; format: cell-based
[10] = system: K562; assay: Inhibition of MAPK signalling in human K562 cells assessed as effect on p38 phosphorylation up to 10 uM incubated for 48 hrs by human phospho-kinase array; format: cell-based
[11] = target: Serine/threonine-protein kinase WNK1 (Homo sapiens) (UniProt Q9H4A3); assay: Inhibition of WNK1 phosphorylation at T60 residue in human K562 cells up to 10 uM incubated for 48 hrs by human phospho-kinase array; format: cell-based
[12] = target: Tyrosine-protein kinase Lck (Homo sapiens) (UniProt P06239); assay: Inhibition of LCK phosphorylation in human K562 cells up to 10 uM incubated for 48 hrs by human phospho-kinase array; format: cell-based
[13] = target: Proline-rich AKT1 substrate 1 (Homo sapiens) (UniProt Q96B36); assay: Inhibition of PRAS40 phosphorylation at T246 residue in human K562 cells up to 10 uM incubated for 48 hrs by human phospho-kinase array; format: cell-based
[14] = target: Serine/threonine-protein kinase AKT (Homo sapiens) (UniProt P31751+Q9Y243+P31749); assay: Inhibition of AKT1/2/3 phosphorylation (S473/T308 residues) in human K562 cells up to 10 uM incubated for 48 hrs by human phospho-kinase array; format: cell-based
[15] = target: Proto-oncogene tyrosine-protein kinase Src (Homo sapiens) (UniProt P12931); assay: Inhibition of SRC phosphorylation in human K562 cells up to 10 uM incubated for 48 hrs by human phospho-kinase array; format: cell-based
[16] = target: Cyclin-dependent kinase inhibitor 1B (Homo sapiens) (UniProt P46527); assay: Induction of p27 phosphorylation at T198 residues in human K562 cells up to 10 uM incubated for 48 hrs by human phospho-kinase array; format: cell-based
[17] = system: K562; assay: Inhibition of RAF/MEK/ERK signalling n human K562 cells assessed as reduction in RSK1/2/3 phosphorylation at S380/S386/S377 residues up to 10 uM incubated for 48 hrs by human phospho-kinase array; format: cell-based
[18] = system: K562; assay: Induction of apoptosis in human K562 cells assessed as increase in apoptotic cells at 10 uM incubated for 24 to 48 hrs by Caspase-3/7 reagent-based fluorescence assay; format: functional, cell-based
[19] = target: Protein-tyrosine kinase 2-beta (Homo sapiens) (UniProt Q14289); assay: Inhibition of PYK2 phosphorylation in human K562 cells up to 10 uM incubated for 48 hrs by human phospho-kinase array; format: cell-based
[20] = system: K562; assay: Induction of apoptosis in human K562 cells assessed as increase in apoptotic cells at 10 uM incubated for 48 hrs by Caspase-3/7 reagent-based fluorescence assay; format: functional, cell-based

Tyrosine-protein kinase Lck (Homo sapiens), sequence (P06239 2-509 limits assumed): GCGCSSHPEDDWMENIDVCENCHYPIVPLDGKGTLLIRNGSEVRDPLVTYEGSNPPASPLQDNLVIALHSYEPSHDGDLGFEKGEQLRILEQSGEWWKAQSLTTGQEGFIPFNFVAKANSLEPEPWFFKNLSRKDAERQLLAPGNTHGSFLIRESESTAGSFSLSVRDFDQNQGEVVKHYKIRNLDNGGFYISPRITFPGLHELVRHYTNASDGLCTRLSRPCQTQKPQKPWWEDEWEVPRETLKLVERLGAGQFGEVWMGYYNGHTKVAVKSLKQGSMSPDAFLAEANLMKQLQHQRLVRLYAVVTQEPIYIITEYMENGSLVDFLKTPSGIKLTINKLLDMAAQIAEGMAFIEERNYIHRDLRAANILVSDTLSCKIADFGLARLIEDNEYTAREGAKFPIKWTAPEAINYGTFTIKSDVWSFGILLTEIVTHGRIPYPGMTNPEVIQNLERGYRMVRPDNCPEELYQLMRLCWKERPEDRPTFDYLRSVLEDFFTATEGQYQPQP
Proto-oncogene tyrosine-protein kinase Src (Homo sapiens), sequence (P12931 2-536 limits assumed): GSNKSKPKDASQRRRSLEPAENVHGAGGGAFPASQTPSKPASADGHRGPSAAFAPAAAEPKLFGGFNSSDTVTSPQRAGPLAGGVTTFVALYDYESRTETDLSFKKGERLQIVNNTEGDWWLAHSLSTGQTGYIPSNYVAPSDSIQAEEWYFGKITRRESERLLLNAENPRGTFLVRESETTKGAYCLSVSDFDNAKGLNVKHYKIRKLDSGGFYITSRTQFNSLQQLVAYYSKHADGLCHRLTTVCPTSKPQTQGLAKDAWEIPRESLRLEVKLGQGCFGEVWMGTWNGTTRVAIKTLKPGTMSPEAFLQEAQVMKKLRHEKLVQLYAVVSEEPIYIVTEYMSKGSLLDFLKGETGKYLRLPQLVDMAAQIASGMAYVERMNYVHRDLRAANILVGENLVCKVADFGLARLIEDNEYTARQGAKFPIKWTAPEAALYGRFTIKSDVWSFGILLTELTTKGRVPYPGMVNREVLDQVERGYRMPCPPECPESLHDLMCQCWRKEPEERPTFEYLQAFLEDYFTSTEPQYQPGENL
Cellular tumor antigen p53 (Homo sapiens), sequence (P04637 whole entry, looked up): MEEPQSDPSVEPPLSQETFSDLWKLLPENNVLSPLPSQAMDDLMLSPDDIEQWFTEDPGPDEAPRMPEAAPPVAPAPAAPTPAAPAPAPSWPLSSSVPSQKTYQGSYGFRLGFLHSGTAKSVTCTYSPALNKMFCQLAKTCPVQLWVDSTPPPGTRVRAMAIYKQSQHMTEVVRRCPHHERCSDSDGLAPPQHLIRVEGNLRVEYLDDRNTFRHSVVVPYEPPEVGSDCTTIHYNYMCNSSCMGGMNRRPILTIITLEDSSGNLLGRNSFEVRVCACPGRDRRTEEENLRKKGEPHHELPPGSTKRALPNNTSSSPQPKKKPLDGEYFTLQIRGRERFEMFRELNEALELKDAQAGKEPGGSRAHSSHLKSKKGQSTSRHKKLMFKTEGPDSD
Cyclin-dependent kinase inhibitor 1B (Homo sapiens), sequence (P46527 whole entry): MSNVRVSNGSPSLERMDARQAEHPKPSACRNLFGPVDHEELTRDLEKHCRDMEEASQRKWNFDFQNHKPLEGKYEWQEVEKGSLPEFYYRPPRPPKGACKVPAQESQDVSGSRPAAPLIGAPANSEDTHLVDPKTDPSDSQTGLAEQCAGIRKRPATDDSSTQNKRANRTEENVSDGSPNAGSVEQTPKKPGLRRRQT
Serine/threonine-protein kinase AKT (Homo sapiens), sequence (P31749 whole entry, looked up): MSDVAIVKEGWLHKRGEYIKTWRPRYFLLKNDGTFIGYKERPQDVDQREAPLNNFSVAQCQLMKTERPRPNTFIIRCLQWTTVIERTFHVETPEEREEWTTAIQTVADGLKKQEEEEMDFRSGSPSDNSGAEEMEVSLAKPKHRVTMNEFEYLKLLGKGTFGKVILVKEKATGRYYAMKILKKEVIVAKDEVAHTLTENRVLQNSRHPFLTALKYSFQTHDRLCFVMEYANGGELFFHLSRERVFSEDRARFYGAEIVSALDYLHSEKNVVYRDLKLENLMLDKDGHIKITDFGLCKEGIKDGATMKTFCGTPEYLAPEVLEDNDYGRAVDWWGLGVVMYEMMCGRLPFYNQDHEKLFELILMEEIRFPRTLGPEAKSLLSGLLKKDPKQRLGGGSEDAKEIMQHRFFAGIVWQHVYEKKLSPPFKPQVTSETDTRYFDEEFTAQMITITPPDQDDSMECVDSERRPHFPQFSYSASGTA
Serine/threonine-protein kinase AKT (Homo sapiens), sequence (P31751 whole entry, looked up): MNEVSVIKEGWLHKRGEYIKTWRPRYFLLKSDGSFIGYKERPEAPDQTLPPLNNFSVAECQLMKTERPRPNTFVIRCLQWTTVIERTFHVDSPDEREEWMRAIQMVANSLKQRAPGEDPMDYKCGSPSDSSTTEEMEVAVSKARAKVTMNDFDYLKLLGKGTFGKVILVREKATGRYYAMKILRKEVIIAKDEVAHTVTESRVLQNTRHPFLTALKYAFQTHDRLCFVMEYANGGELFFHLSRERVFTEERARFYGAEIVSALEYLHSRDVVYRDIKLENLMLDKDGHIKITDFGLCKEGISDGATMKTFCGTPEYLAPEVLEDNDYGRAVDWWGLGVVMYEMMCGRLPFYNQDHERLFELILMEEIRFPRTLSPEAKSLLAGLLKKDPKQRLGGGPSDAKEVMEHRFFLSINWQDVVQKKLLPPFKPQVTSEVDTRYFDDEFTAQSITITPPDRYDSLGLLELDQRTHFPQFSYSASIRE
Serine/threonine-protein kinase AKT (Homo sapiens), sequence (Q9Y243 whole entry, looked up): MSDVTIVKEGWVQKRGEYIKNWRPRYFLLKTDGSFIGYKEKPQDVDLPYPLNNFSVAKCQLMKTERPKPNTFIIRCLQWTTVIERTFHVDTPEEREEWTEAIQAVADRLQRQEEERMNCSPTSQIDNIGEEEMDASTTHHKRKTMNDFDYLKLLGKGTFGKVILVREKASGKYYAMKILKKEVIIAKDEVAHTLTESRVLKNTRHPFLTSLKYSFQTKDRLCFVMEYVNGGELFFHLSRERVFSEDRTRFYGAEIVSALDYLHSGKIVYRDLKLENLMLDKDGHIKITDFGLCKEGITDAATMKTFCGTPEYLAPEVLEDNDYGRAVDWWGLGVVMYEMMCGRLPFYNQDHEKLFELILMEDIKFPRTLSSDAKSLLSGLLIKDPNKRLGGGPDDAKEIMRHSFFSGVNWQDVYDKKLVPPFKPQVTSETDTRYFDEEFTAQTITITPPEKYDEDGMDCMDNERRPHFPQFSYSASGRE
Protein-tyrosine kinase 2-beta (Homo sapiens), sequence (Q14289 whole entry, looked up): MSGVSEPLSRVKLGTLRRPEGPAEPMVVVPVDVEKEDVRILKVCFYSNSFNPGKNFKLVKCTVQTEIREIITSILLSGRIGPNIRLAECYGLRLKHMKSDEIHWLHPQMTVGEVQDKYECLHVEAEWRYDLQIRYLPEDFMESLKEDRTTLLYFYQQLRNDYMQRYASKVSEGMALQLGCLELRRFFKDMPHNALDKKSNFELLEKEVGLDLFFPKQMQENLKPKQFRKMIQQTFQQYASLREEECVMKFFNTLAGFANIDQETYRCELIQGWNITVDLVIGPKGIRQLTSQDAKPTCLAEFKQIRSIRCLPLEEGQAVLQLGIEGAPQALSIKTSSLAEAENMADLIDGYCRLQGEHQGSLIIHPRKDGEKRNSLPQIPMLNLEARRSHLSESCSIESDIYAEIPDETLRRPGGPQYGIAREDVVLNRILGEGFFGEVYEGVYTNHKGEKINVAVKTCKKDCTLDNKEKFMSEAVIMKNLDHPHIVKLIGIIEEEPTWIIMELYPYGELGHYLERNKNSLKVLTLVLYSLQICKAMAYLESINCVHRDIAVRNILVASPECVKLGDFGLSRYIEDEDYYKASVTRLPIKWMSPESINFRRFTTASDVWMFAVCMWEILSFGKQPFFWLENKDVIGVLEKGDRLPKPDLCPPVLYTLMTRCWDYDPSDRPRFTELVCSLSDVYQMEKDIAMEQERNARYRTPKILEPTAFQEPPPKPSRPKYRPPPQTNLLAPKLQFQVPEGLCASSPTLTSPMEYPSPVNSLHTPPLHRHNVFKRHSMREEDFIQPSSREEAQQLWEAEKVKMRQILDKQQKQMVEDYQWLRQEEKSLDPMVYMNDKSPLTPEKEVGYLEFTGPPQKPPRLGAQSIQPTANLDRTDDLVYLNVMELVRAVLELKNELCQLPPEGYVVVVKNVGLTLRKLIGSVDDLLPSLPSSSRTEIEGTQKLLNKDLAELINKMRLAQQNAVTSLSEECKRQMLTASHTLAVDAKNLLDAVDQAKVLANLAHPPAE

SMILES: O=C(Nc1ccc(Cl)c(C(F)(F)F)c1)Nc1nnc(Sc2cc(OCCCN3CCOCC3)ncn2)s1
IC50 [1]: 150 nM

SMILES: COc1cccc(NC(=O)Nc2nnc(Sc3cc(NCCCN4CCOCC4)ncn3)s2)c1
IC50 [1]: 690 nM

SMILES: CCN(CC)CCCNc1cc(Sc2nnc(NC(=O)Nc3ccc(Cl)c(C(F)(F)F)c3)s2)ncn1
IC50 [1]: 280 nM

SMILES: Cc1ccc(NC(=O)c2ccc(CN3CCN(C)CC3)cc2)cc1Nc1nccc(-c2cccnc2)n1 [IMATINIB]
IC50 [1]: 140 nM
Activity [20]: Active

SMILES: O=C(Nc1ccc(Cl)c(C(F)(F)F)c1)Nc1nnc(Sc2cc(NCCCN3CCOCC3)ncn2)s1
IC50 [1]: 120 nM

These reach a lower IC50 [1]. Values come first.

IC50 [1]: 78 nM
SMILES: Cc1ccc(NC(=O)Nc2nnc(Sc3cc(OCCCN4CCOCC4)ncn3)s2)cc1

IC50 [1]: 14 nM
SMILES: CCN(CC)CCCNc1cc(Sc2nnc(NC(=O)Nc3ccc(C)cc3)s2)ncn1

IC50 [1]: 35 nM
SMILES: Cc1ccc(NC(=O)Nc2nnc(Sc3cc(NCCCN4CCOCC4)ncn3)s2)cc1Cl

IC50 [1]: 56 nM
SMILES: Cc1ccc(NC(=O)Nc2nnc(Sc3cc(NCCCN4CCOCC4)ncn3)s2)cc1

IC50 [1]: 110 nM
SMILES: O=C(Nc1ccc(Cl)cc1)Nc1nnc(Sc2cc(NCCCN3CCOCC3)ncn2)s1

Activity [2]: Active
IC50 [1]: 38 nM
inhibition [11]: Active
inhibition [12]: Active
inhibition [13]: Active
inhibition [14]: Active
inhibition [15]: Active
Activity [16]: Active
inhibition [19]: Active
SMILES: O=C(Nc1ccc(C(F)(F)F)cc1)Nc1nnc(Sc2cc(NCCCN3CCOCC3)ncn2)s1
inhibition [3]: Active
inhibition [4]: Active
inhibition [5]: Active
inhibition [6]: Active
inhibition [7]: Active
inhibition [8]: Active
inhibition [9]: Active
inhibition [10]: Active
inhibition [17]: Active
Activity [18]: Active
